# Columns and labels:
# [1] = system: CFTR−/− mice; assay: Fatty acid levels (GC/MS) in pancreas and lung cells of CFTR−/− mice fed n-3 fatty acids; type: in vivo, mouse; conditions: CFTR-/- mice, 40 mg/day for one week (fish oil: dose equivalent to 40 mg DHA, 60 mg EPA, 15 mg LNA); mean ± S.D.
# Protocol: Mouse pancreatic acinar and lung cell suspensions were prepared from wild type (n=3) and CFTR−/− mice (n=3) by enzymatic and mechanical dissociation. In addition, brain, kidney, heart, spleen, and blood were sonicated in 0.3M sucrose buffer. Membrane lipids were extracted from cell and organ preparations with 20 volumes of chloroform-methanol 2:1 (v/v), transmethylated with 0.5 mL of 0.1 N methanolic-NaOH/BF3 reagent, and the resulting fatty acid methyl esters analyzed by gas chromatography/mass spectrometry (GC/MS). In a different set of experiments, lipids were fractionated by aminopropyl column chromatography into triglycerides, cholesterol esters, and phosphoglycerides and the fatty acid composition of each lipid class determined by a combination of enzymatic hydrolysis, transmethylation, and GC/MS.
# Cystic fibrosis (UNC strain) and wild type mice (12-20 grams body weight) were fed with a complete liquid enteral formulation (Peptamen™, Nestle Clinical Nutrition, Inc.) supplemented with different quantities of the DHA-containing formulation Neuromins (Nature's Way Products Inc., Springville, Utah). DHA content in the Neuromins formulation was 100 mg per 500 mg of formulation. Mice were fed once a day at about 11 a.m., seven days a week with 20 ml of Peptamen™ supplemented with the various amounts of either Neuramins, free DHA (Sigma Chemical Co., MO) or DHA-ethyl ester (Nu-Check-Prep, Inc. MN) ranging from 0.5 mg/day of DHA to 40 mg/day of DHA.
# Lung and acinar cells were isolated from a CF mouse fed with DHA formula (mouse-1, 40 mg/day DHA). The pellets (0.5 mL for pancreas cell homogenate and 0.6 mL for lung cell homogenate) were extracted with 3 mL of chloroform-methanol 2:1 (v/v). The resulting emulsion was vortexed, centrifuged at 800 g for 3 min., and the lower phase aspirated. The residual upper phase was partitioned again with 3 mL of chloroform-methanol 2:1 (v/v), the lower phase aspirated and both lower phases combined. Fractions were evaporated to dryness, processed for fatty acid methyl esters (FAME) and were analyzed by GC-MS analysis. Aliquots of 10 μL of 17:0 methyl ester solution in hexane [1 μg/μL] were added to the samples after methylation.
# (§1) Lung and acinar cells were isolated from a CF and a wild-type (WT) mouse fed with DHA formula. The pellets (0.5 mL for pancreas cell homogenate and 0.6 mL for lung cell homogenate) were extracted with 3 mL of chloroform-methanol 2:1 (v/v). The resulting emulsion was vortexed, centrifuged at 800 g for 3 min., and the lower phase aspirated. The residual upper phase was partitioned again with 3 mL of chloroform-methanol 2:1 (v/v), the lower phase aspirated and both lower phases combined. Fractions were evaporated to dryness, processed for FAME and analyzed by GC-MS. Aliquots of 20 μL of 17:0 in chloroform-methanol 2:1 (v/v) were added to the samples before methylation.
# as §1, with “from” for “from a”, “mice” for “and a wild-type (WT) mouse”, “different doses of DHA, i.e., 0.5 mg/day, 2.0 mg/day, 10 mg/day or 40 mg/day DHA.” for “DHA formula.”, “pellets” for “pellets (0.5 mL for pancreas cell homogenate and 0.6 mL for lung cell homogenate)”, “30” for “20”
# CFTR−/− mice were prepared as described in Example 1. Both CFTR−/− mice and wild type mice were euthanized with carbon dioxide, and cell suspensions from pancreas and lung isolated.
# [2] = system: CFTR−/− mice; assay: as above; type: in vivo, mouse; conditions: CFTR-/- mice, 40 mg/day for one week (fish oil: dose equivalent to 40 mg DHA, 60 mg EPA, 15 mg LNA); mean ± S.D.; remark: listed apart in the source
structure (smiles),measurement,setting,value
"CC/C=C\C/C=C\C/C=C\C/C=C\C/C=C\CCCC(=O)O [EPA, Eicosapentaenoic acid, reference compound]",DHA level in pancreas,[1],2.2 ± 0.4 nmol/mg
same,AA level in pancreas,[2],5.1 ± 0.3 nmol/mg
